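Grown in 96-well plates, cells were treated for 48 hours with each compound at five concentrations. Insufficient inhibition: endpoint recorded as highest concentration tested. GI50: concentration for 50% inhibition of growth.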 Calls of active or inactive are those of the source. No stated cut-off is given here; in the data, active = GI50 up to about 1.1 µM and inactive = higher.
Columns and labels:
Test in all cases: DTP human tumour cell line panel, 48 h
786-0 = tested on: 786-0
A549 = tested on: A549
ACHN = tested on: ACHN
BT-549 = tested on: BT-549
CAKI-1 = tested on: CAKI-1
CCRF-CEM = tested on: CCRF-CEM
COLO 205 = tested on: COLO 205
DU-145 = tested on: DU-145
EKVX = tested on: EKVX
HCC 2998 = tested on: HCC 2998
HCT-116 = tested on: HCT-116
HCT-15 = tested on: HCT-15
HL-60 = tested on: HL-60
HOP-62 = tested on: HOP-62
HOP-92 = tested on: HOP-92
HT-29 = tested on: HT-29
Hs-578T = tested on: Hs-578T
IGROV-1 = tested on: IGROV-1
K562 = tested on: K562
KM12 = tested on: KM12
LOX IMVI = tested on: LOX IMVI
M14 = tested on: M14
MCF7 = tested on: MCF7
MDA-MB-231 = tested on: MDA-MB-231
MDA-MB-435 = tested on: MDA-MB-435
MDA-N = tested on: MDA-N
MOLT-4 = tested on: MOLT-4
Malme-3M = tested on: Malme-3M
NCI-H226 = tested on: NCI-H226
NCI-H23 = tested on: NCI-H23
NCI-H460 = tested on: NCI-H460
NCI-H522 = tested on: NCI-H522
NCI/ADR-RES = tested on: NCI/ADR-RES
OVCAR-3 = tested on: OVCAR-3
OVCAR-4 = tested on: OVCAR-4
OVCAR-5 = tested on: OVCAR-5
OVCAR-8 = tested on: OVCAR-8
PC-3 = tested on: PC-3
RPMI-8226 = tested on: RPMI-8226
SF-268 = tested on: SF-268
SF-295 = tested on: SF-295
SF-539 = tested on: SF-539
SK-MEL-28 = tested on: SK-MEL-28
SK-MEL-2 = tested on: SK-MEL-2
SK-OV-3 = tested on: SK-OV-3
SN12C = tested on: SN12C
SNB-19 = tested on: SNB-19
SNB-75 = tested on: SNB-75
SR = tested on: SR
SW-620 = tested on: SW-620
TK-10 = tested on: TK-10
U-251 = tested on: U-251
UACC-257 = tested on: UACC-257
UACC-62 = tested on: UACC-62
UO-31 = tested on: UO-31
SK-MEL-5 = tested on: SK-MEL-5
T47D = tested on: T47D

For COc1ccccc1NCC(=O)Nn1c(C)nc2ccc(S(=O)(=O)Nc3ccccc3OC)cc2c1=O, the GI50 (786-0) was > 100 µM (inactive), the GI50 (A549) was 97.5 µM (inactive) and the GI50 (ACHN) was > 100 µM (inactive). The GI50 (BT-549) was > 100 µM (inactive), the GI50 (CAKI-1) was > 100 µM (inactive) and the GI50 (CCRF-CEM) was 53.5 µM (inactive). The GI50 (COLO 205) was > 100 µM (inactive), the GI50 (DU-145) was > 100 µM (inactive) and the GI50 (EKVX) was > 100 µM (inactive). The GI50 (HCC 2998) was > 100 µM (inactive), the GI50 (HCT-116) was > 100 µM (inactive) and the GI50 (HCT-15) was 56.1 µM. For the same molecule, the GI50 (HL-60) was 47.1 µM (inactive), the GI50 (HOP-62) was > 100 µM (inactive) and the GI50 (HOP-92) was > 100 µM (inactive). The GI50 (HT-29) was 43.8 µM (inactive), the GI50 (Hs-578T) was > 100 µM (inactive) and the GI50 (IGROV-1) was 42.7 µM (inactive). For the same molecule, the GI50 (K562) was 80.4 µM (inactive), the GI50 (KM12) was > 100 µM (inactive) and the GI50 (LOX IMVI) was > 100 µM (inactive). The GI50 (M14) was > 100 µM (inactive), the GI50 (MCF7) was 63 µM (inactive) and the GI50 (MDA-MB-231) was > 100 µM (inactive). For the same molecule, the GI50 (MDA-MB-435) was 26.7 µM (inactive), the GI50 (MDA-N) was 29.7 µM (inactive) and the GI50 (MOLT-4) was > 100 µM (inactive). For the same molecule, the GI50 (Malme-3M) was 97.7 µM (inactive), the GI50 (NCI-H226) was > 100 µM (inactive) and the GI50 (NCI-H23) was > 100 µM (inactive). The GI50 (NCI-H460) was > 100 µM (inactive), the GI50 (NCI-H522) was 35.6 µM (inactive) and the GI50 (NCI/ADR-RES) was > 100 µM (inactive). For the same molecule, the GI50 (OVCAR-3) was 83.4 µM (inactive), the GI50 (OVCAR-4) was > 100 µM (inactive) and the GI50 (OVCAR-5) was > 100 µM (inactive). The GI50 (OVCAR-8) was > 100 µM (inactive), the GI50 (PC-3) was 88.5 µM (inactive) and the GI50 (RPMI-8226) was > 100 µM (inactive). The GI50 (SF-268) was > 100 µM (inactive), the GI50 (SF-295) was 36.1 µM (inactive) and the GI50 (SF-539) was > 100 µM (inactive). The GI50 (SK-MEL-28) was > 100 µM (inactive), the GI50 (SK-MEL-2) was > 100 µM (inactive) and the GI50 (SK-OV-3) was > 100 µM (inactive). The GI50 (SN12C) was > 100 µM (inactive), the GI50 (SNB-19) was > 100 µM (inactive) and the GI50 (SNB-75) was > 100 µM (inactive). For the same molecule, the GI50 (SR) was 36.5 µM (inactive), the GI50 (SW-620) was 65.2 µM (inactive) and the GI50 (TK-10) was > 100 µM (inactive). The GI50 (U-251) was > 100 µM (inactive), the GI50 (UACC-257) was > 100 µM (inactive) and the GI50 (UACC-62) was 63.4 µM (inactive). For the same molecule, the GI50 (UO-31) was > 100 µM (inactive).

In the case of CC1=C2CC(C)(C)CC(=O)C2(C)CCC1=O (centres undefined), the GI50 (786-0) is reported as > 100 µM (inactive), the GI50 (A549) is reported as > 100 µM (inactive) and the GI50 (ACHN) is reported as > 100 µM (inactive). For the same molecule, the GI50 (BT-549) was > 100 µM (inactive), the GI50 (CAKI-1) was > 100 µM (inactive) and the GI50 (CCRF-CEM) was > 100 µM (inactive). The GI50 (COLO 205) was > 100 µM (inactive), the GI50 (DU-145) was > 100 µM (inactive) and the GI50 (EKVX) was > 100 µM (inactive). The GI50 (HCC 2998) was > 100 µM (inactive), the GI50 (HCT-116) was > 100 µM (inactive) and the GI50 (HCT-15) was over 100 µM. The GI50 (HL-60) was > 100 µM (inactive), the GI50 (HOP-62) was > 100 µM (inactive) and the GI50 (HT-29) was > 100 µM (inactive). The GI50 (Hs-578T) was > 100 µM (inactive), the GI50 (IGROV-1) was > 100 µM (inactive) and the GI50 (K562) was > 100 µM (inactive). For the same molecule, the GI50 (KM12) was > 100 µM (inactive), the GI50 (LOX IMVI) was > 100 µM (inactive) and the GI50 (M14) was > 100 µM (inactive). For the same molecule, the GI50 (MCF7) was > 100 µM (inactive), the GI50 (MDA-MB-231) was > 100 µM (inactive) and the GI50 (MDA-N) was > 100 µM (inactive). For the same molecule, the GI50 (MOLT-4) was > 100 µM (inactive), the GI50 (Malme-3M) was > 100 µM (inactive) and the GI50 (NCI-H226) was > 100 µM (inactive). The GI50 (NCI-H23) was > 100 µM (inactive), the GI50 (NCI-H460) was > 100 µM (inactive) and the GI50 (NCI-H522) was > 100 µM (inactive). For the same molecule, the GI50 (NCI/ADR-RES) was > 100 µM (inactive), the GI50 (OVCAR-4) was > 100 µM (inactive) and the GI50 (OVCAR-5) was > 100 µM (inactive). For the same molecule, the GI50 (OVCAR-8) was > 100 µM (inactive), the GI50 (PC-3) was > 100 µM (inactive) and the GI50 (RPMI-8226) was 3.02 µM (inactive). The GI50 (SF-268) was > 100 µM (inactive), the GI50 (SF-295) was > 100 µM (inactive) and the GI50 (SF-539) was > 100 µM (inactive). For the same molecule, the GI50 (SK-MEL-28) was > 100 µM (inactive), the GI50 (SK-MEL-2) was > 100 µM (inactive) and the GI50 (SK-MEL-5) was > 100 µM (inactive). For the same molecule, the GI50 (SK-OV-3) was > 100 µM (inactive), the GI50 (SN12C) was > 100 µM (inactive) and the GI50 (SNB-19) was > 100 µM (inactive). The GI50 (SNB-75) was > 100 µM (inactive), the GI50 (SR) was 94.2 µM (inactive) and the GI50 (SW-620) was > 100 µM (inactive). The GI50 (T47D) was > 100 µM (inactive), the GI50 (TK-10) was > 100 µM (inactive) and the GI50 (U-251) was > 100 µM (inactive). For the same molecule, the GI50 (UACC-257) was > 100 µM (inactive), the GI50 (UACC-62) was > 100 µM (inactive) and the GI50 (UO-31) was > 100 µM (inactive).
